# From patent US6541196B2, “Method for cAMP production” (Jackson State University, priority 2000, dated 2003)
# Tests used:
# [1] = tested on: MDCKE11 cells; assay: cAMP production in renal tubular epithelial cells (MDCK); format: cell-based, canine; conditions: P<0.001 when compared to all other groups
# Protocol: The culture medium was aspirated from RTEc monolayers, and the cells were washed three times with PBS. Madin-Darby canine kidney cell (MDCKc) monolayers were then overlaid with 5 mls PBS at room temperature on 100 mm culture dishes. cAMP phosphodiesterase inhibitor was added at a final concentration of 10 μM to all incubations to prevent the enzymatic degradation of cellular cAMP. Isoproterenol (ISO) at 10^−5M, bFGF (basic fibroblast growth factor) (20 ng/ml), or both were added to the treatment groups. Cells were incubated under an atmosphere of 95% air and 5% CO2 at 37° C. for 1, 3, 5, 10, 20, and 40 minute periods. Following the incubation period, 1.0 ml/plate aliquot samples were transferred to 12×75 mm polypropylene tubes, and immediately placed in a 0° C. ice bath. […] Total cellular protein was determined using the BCA (bicinchoninic acid) protein assay (Pierce, Rockford, Ill.) according to the manufacturers specification. The cAMP assays were done as prescribed by the manufacturer of the cAMP quantitation kit (Diagnostic Products Corporation, Los Angeles, Calif.); this procedure is patterned after a procedure described by Tovey et al. The procedure entails a competition of ^3H cAMP for cAMP binding protein, separation of free (unbound) cAMP by adsorption onto dextrancoated charcoal, followed by counting of bound ^3H by liquid scintillation (Izevbigie, Pediatr. Nephrol., 2000).
# [2] = tested on: differentiated C2C12 cells; assay: cAMP production in differentiated C2C12 myoblasts; format: cell-based, mouse; conditions: isoproterenol 10, 0.1 or 0.001 μM, 37° C., 10 min
# Protocol: Medium was aspirated from differentiated C2C12 cells, and monolayers were washed with PBS. Monolayers were then overlaid with PBS at 37° C. containing the following treatments: isoproterenol (ISO) at 10^−5, 10^−7, and 10^−9 M forskolin (positive control) at 5×10^−5 M, and negative control (no treatments). A cAMP phosphodiesterase inhibitor, imidazolidin, (10^−6 M) was added to all incubations to prevent enzymatic degradation of cAMP. Culture dishes were placed in a humidified incubator under an atmosphere of 95% air and 5% CO2 at 37° C. for 5-10 min. After the incubation, aliquots of incubation medium were quickly removed, chilled, and stored at −20° C. for cAMP determination (within 3 days). Cells were washed and frozen for later protein determination (Bradford, 1976). The cAMP assays were done as prescribed by the manufacturer of the cAMP quantitation kit (Diagnostic Products Corporation, Los Angeles, Calif.); this procedure is patterned after a procedure described by Tovey et al. The procedure entails a competition of ^3H cAMP for cAMP binding protein, separation of free (unbound) cAMP by adsorption onto dextran-coated charcoal, followed by counting of bound ^3H by liquid scintillation. […] Thus, cAMP production was determined as the sum of assayable cAMP in the PBS and within the cells.
# [3] = tested on: HFMc; assay: cAMP accumulation in human fetal mesangial cells (extracellular cAMP, competitive 3H-cAMP binding kit); format: cell-based; conditions: 10 min; for cAMP accumulation compared with control cells: confluent serum-starved HFMc, Ang II 1 μM, bFGF 20 ng/ml, p<0.05
# Protocol: The culture medium was aspirated from HFMc monolayers, and the cells were washed three times with PBS. Cell monolayers were then overlaid with PBS at room temperature on 100 mm culture dishes. A cAMP phosphodiesterase inhibitor was added to a final concentration of 10 μM to all incubations to prevent the enzymatic degradation of cellular cAMP. Isoproterenol (ISO) at 10^−5M, with or without bFGF (basic fibroblast growth factor) (20 ng/ml), or three doses of ISO (10^−5, 10^−7, 10^−9M) with 10^−6M angiotensin II (Ang II) were added to the treatment groups. Cells were incubated under an atmosphere of 95% air and 5% CO2 at 37° C. for 10 minutes. Following the incubation period, 1.0 ml/plate aliquot samples were transferred to 12×75 mm polypropylene tubes, and immediately placed in a 0° C. ice bath. The cell monolayers and 1.0 ml aliquots were stored at −20° C. for protein determination and cAMP analysis respectively. Total cellular protein was determined using the BCA (bicinchoninic acid) protein assay (Pierce, Rockford, Ill.) according to the manufacturers specification. The extracellular cAMP per plate was quantified using Diagnostic Corporation (Los Angeles, Calif.) kits according to the manufacturer's specifications; this procedure is patterned after a procedure described by Tovey et al. The procedure entails a competition of ^3H cAMP for cAMP binding protein, separation of free (unbound) cAMP by adsorption onto dextrancoated charcoal, followed by counting of bound ^3H by liquid scintillation (Izevbigie, Pediatr. Res., 2000).
compound,measurement,setting,value
"CC(C)NCC(O)c1ccc(O)c(O)c1 (centres unmarked) [Isoproterenol, isoproterenol]",cAMP production,[1],induction of cAMP production
same,cAMP production,[2],dose-dependent cAMP production
"angiotensin II (DRVYIHPF; Angiotensin-2; UniProt P01019 25-32, looked up) [Ang II]",cAMP accumulation compared with control cells,[3],not
same,modulation of isoproterenol-induced cAMP accumulation,"[3]; serum-starved HFMc, Ang II (1 µM) with different concentrations of isoproterenol, significant at 0.1 and 10 μM isoproterenol (p<0.05)",decreased
basic fibroblast growth factor [bFGF],cAMP accumulation compared with control cells,[3],modest but significant increase
